The values below come from patent US4360663A, “Steroid hormone-antitumor derivatives” (Kureha Kagaku Kogyo Kabushiki Kaisha, priority 1978, dated 1982).

Data set [1] in a line: Acute toxicity (LD50), ICR-JCL female mice, Litchfield-Wilcoxon graph method. To be noted: mouse, in vivo, one dose, in olive oil, after 7 days. As for the experimental part:
In the measurement of LD50, eight ICR-JCL female mice (5 week age) were used as one group to breed in a transparent polycage, and each drug was dissolved in olive oil and administrated by routes of intraperitoneal injection (i.p.), oral administration (p.o.) and subcutaneous injection (s.c.), to the mice at one dose and then, their value of LD50 by Litchfield-Wilcoxon graph method is obtained after 7 days.
(§1) The tests (1), (2), (3) for various active ingredients were carried out.

For data set [2], the system named is human breast cancer cells having steroid hormone receptor. The data set can be described thus: Antitumor test (in vivo), human breast cancer cells implanted in BALB/C-nu/nu mice. Particulars: tumors excised day 25. The method, then: Pieces of human breast cancer cells having steroid hormone receptor was subcutaneously implanted under the arm of mice (BALB/C-nu/nu) (5 week age) to form solid tumors. After the solid tumors were established, each dispersion or solution of the active ingredient in olive oil was administered by oral dose or intraperitoneal injection each other day for 10 times or every days for 20 times. Twenty five days from the initial administration, the tumors were excised. Efficiency of inhibition of tumor proliferation was measured from (A) each average weight of excised tumors for 10 mice (the active ingredient was administrated) and (B) each average weight of excised tumors for 10 control mice. [formula]
as §1

In general, LD50 refers to the dose expected to kill half of the subjects tested. Low readings indicate a more toxic substance, high ones a less toxic substance. Consider `C[C@]12CC[C@@H]3c4ccc(OC(=O)c5ccccc5)cc4CC[C@H]3[C@@H]1CC[C@@H]2OC(=O)COCCNc1nc(N2CC2)nc(N2CC2)n1` [compound 20], for which the values for the 50% lethal dose (LD50) at 168 h in data set [1] (ip) and in data set [1] (po) were > 15 mg/kg and > 2000 mg/kg, respectively. Further, the “Inhibitory effect of tumor, efficiency” value in data set [2] (i.p., 0.1 mg/kg) is reported as 74%; in data set [2] (p.o., 1 mg/kg), 78%; in data set [2] (p.o., 5 mg/kg), 87%.
On to `O=NN(CCCl)C(=O)N[C@H]1C(O)O[C@H](CO)[C@@H](O)[C@@H]1O` (stereo partly shown) [Test No. 1 (Table 18), reference compound], for which the values for the LD50 at 168 h in data set [1] (ip) and in data set [1] (po) were 48 mg/kg and 210 mg/kg, respectively. In addition, the “Inhibitory effect of tumor, efficiency” value in data set [2] (i.p., 3 mg/kg) is 18%; in data set [2] (i.p., 10 mg/kg), 58%; in data set [2] (p.o., 10 mg/kg), 13%; in data set [2] (p.o., 40 mg/kg), 60%.
With `COc1cccc2c1C(=O)c1c(O)c3c(c(O)c1C2=O)C[C@@](O)(C(=O)CO)C[C@@H]3O[C@H]1C[C@H](N)[C@H](O)[C@H](C)O1` [Test No. 13 (Table 18), 3-glycoloyl-1,2,3,4,6,11-hexahydro-3,5,12-trihydroxy-10-methoxy-6,11-dioxo-1-naphthacenyl-3'-amino-2',3',6'-trideoxy-α-L-lyxo-hexapyranoside, reference compound], the LD50 at 168 h in data set [1] (po) was 730 mg/kg. Besides, the “Inhibitory effect of tumor, efficiency” value in data set [2] (i.p., 10 mg/kg) amounted to 20%; in data set [2] (p.o., 10 mg/kg), 20%.
With `COc1cccc2c1C(=O)c1c(O)c3c(c(O)c1C2=O)C[C@@](O)(C(C)=O)C[C@@H]3O[C@H]1C[C@H](NCC(=O)O[C@H]2CC[C@H]3[C@@H]4CCc5cc(O)ccc5[C@H]4CC[C@]23C)[C@H](O)[C@H](C)O1` [compound 19], the values for the LD50 at 168 h in data set [1] (ip) and in data set [1] (po) were > 15 mg/kg and > 2000 mg/kg, respectively. The “Inhibitory effect of tumor, efficiency” value in data set [2] (i.p., 0.1 mg/kg) is 90%; in data set [2] (i.p., 0.5 mg/kg) it was 99%; in data set [2] (p.o., 1 mg/kg) it was 72%; in data set [2] (p.o., 5 mg/kg), 85%.
With `COc1cccc2c1C(=O)c1c(O)c3c(c(O)c1C2=O)C[C@@](O)(C(C)=O)C[C@@H]3O[C@H]1C[C@H](N)[C@H](O)[C@H](C)O1` [compound 18], the LD50 at 168 h in data set [1] (ip) amounted to 5 mg/kg; in data set [1] (po) it was 20 mg/kg. Further, the “Inhibitory effect of tumor, efficiency” value in data set [2] (i.p., 0.5 mg/kg) worked out at 47%; in data set [2] (i.p., 1 mg/kg), 78%; in data set [2] (p.o., 1 mg/kg), 59%.
For `CN(Cc1cnc2nc(N)nc(N)c2n1)c1ccc(C(=O)N[C@@H](CCC(=O)O)C(=O)O)cc1` [Test No. 12 (Table 18), 4-amino-N^10 --methylpteroyl glutamate, reference compound], the LD50 at 168 h was 94 mg/kg in data set [1] (ip) and 230 mg/kg in data set [1] (po). Also, the “Inhibitory effect of tumor, efficiency” value was found to be 48% in data set [2] (i.p., 5 mg/kg); 65% in data set [2] (i.p., 20 mg/kg); 31% in data set [2] (p.o., 10 mg/kg); 42% in data set [2] (p.o., 50 mg/kg).
For the compound `CCC(=O)Oc1ccc2c(c1)CC[C@@H]1[C@@H]2CC[C@]2(C)[C@@H](OC(=O)Cn3cc(F)c(=O)[nH]c3=O)CC[C@@H]12` [Test No. 10 (Table 18), 3-propionyloxy-1,3,5(10)-estratriene-17β-[5-fluoro-2,4-dioxo-pyrimidin-1-yl]acetate], the results for the LD50 at 168 h in data set [1] (ip) and in data set [1] (po) were 740 mg/kg and > 3000 mg/kg, respectively. Also, the “Inhibitory effect of tumor, efficiency” value in data set [2] (i.p., 15 mg/kg) stood at 81%; in data set [2] (i.p., 30 mg/kg) it was 91%; in data set [2] (p.o., 15 mg/kg), 72%; in data set [2] (p.o., 30 mg/kg), 83%.
Consider `O=c1[nH]cc(F)c(=O)[nH]1` [Test No. 8 (Table 17), 5-fluoro-2,4-dioxo-pyrimidine, reference compound], for which the LD50 at 168 h is 242 mg/kg in data set [1] (ip) and 900 mg/kg in data set [1] (po). In addition, the “Inhibitory effect of tumor, efficiency” value in data set [2] (i.p., 10 mg/kg) was found to be 30%; in data set [2] (i.p., 20 mg/kg) it was 50%; in data set [2] (p.o., 15 mg/kg), 30%; in data set [2] (p.o., 30 mg/kg) it was 60%.
